Here are results for 1 compound from patent publication US10391166B2, “Short oligonucleotides as vaccine adjuvants and therapeutic agents” (priority 2013, dated 2019).

What is called CC50 is the concentration giving 50% cytotoxicity. Lower therefore signals greater toxicity to the cells.

“Also recorded” adds a separate entry of the source. Some results are limits rather than exact numbers.

Series [1] concerns IRF3-luciferase reporter gene. The experiment in a line: IRF3-luciferase reporter induction in HLE A549 cells (primary assay for NOD2 activation). The settings on record: 12 h incubation. In kind it is cell-based, human. As for the experimental part:
The evaluation of SMNH compounds for NOD2 activation was conducted by primary, secondary, and tertiary assays. In the primary assays, SMNH compounds were tested for the induction of IRF3 expression in HLE A549 cells, which are known to endogenously express NOD2. […] SB 44, a mixture of two isomers Rp and Sp, is a prodrug of SB 40. SB 1B—the Rp isomer of SB 44 and is shown as SB 44-1 in the FIGS. 1-2.
IRF3-luciferase transfected cells were incubated with either DMSO only (UT) or SMNH compounds (μM). Following 12 h incubation, luciferase activity was measured using Dual-Luciferase Reporter Assay System (Promega) according to the manufacturer's protocol. Transfection efficiency was normalized by measuring the expression of renilla Luciferase. Luciferase units (i.e., fold induction) were measured by standard methodology (mean±standard deviation; 3 independent experiments). The results are depicted in FIG. 1.
A general note: Reporter assays use an easily measured gene product as a stand-in for the process of interest.

The conditions of series [2]: liver microsomes. A general note: Microsomes from liver hold many membrane-bound enzymes, among them those of drug oxidation.
Description: SB 44 (10 μM) was incubated with a mix containing S9 fraction (pooled from human) (1 mg/ml), NADPH (1.3 mM) UDPGA (5 mM), Alamethicin (10 μg/ml) in 1 ml of 1×PBS buffer. […] The metabolite samples were evaluated by HPLC and LC/MS analysis.
Series [3] has as its system RIG-I and NOD2. Format: cell-based. The settings on record: receptor-deficient cells, exogenous RIG-I and NOD2.
For series [4], the system named is HFF (human foreskin fibroblasts). Nature of the series: MTT cytotoxicity assay, HFF cells. In kind it is cell-based. The following applies: 24-hour incubation. The text has this:
(§1) SDS was used as a positive cytotoxic control.
In general terms: Tetrazolium assays rely on reduction of a dye to a coloured formazan, in cell work by metabolically active cells.

Series [5] has as its system Vero. The experiment in a line: MTT cytotoxicity assay, Vero cells. Format: cell-based. The following applies: 24-hour incubation.
Source text: as §1

Series [6] deals with phosphorylated IRF3. Nature of the series: Western blot for phosphorylated IRF3 in human lung epithelial A549 cells. In kind it is cell-based. The settings on record: 500 nM, Western blotting. As for the experimental part: Human lung epithelial A549 cells were incubated with either DMSO or SB 44 (500 nM). At indicated post-treatment time-points, the cell lysate was subjected to Western blotting with antibody specific for phosphorylated IRF3 (phospho-IRF3) (Cell signaling).

The subject of series [7] is NF-kB. The experiment in a line: NF-kB-luciferase assay in HEK 293 cells transfected with RIGI and Nod2. Format: cell-based. The following applies: 10 μM; 12 h incubation. As for the experimental part:
HEK 293 cells were transfected with RIGI, pcDNA, Nod2 and NF-kB-luciferase. The cells were then incubated with SB 44 (10 μM). Following 12 h incubation, Luciferase activity was measured as described previously. The Luciferase assay results are presented as mean±S.D. from three independent experiments.

For series [8], the system named is M. tuberculosis. The arrangement: species or system C57Bl/6 mice. The settings on record: mouse, in vivo.
Series [9] is described as follows: 14-day oral toxicity study in rats with two-week recovery. In kind it is in vivo, Sprague-Dawley rats.
Description: Necropsies were performed on Day 15 for rats in the main study group and on Day 28 for rats in the recovery group.
Series [10] concerns PBMCs. Format: cell-based.
In series [11] the test system is peripheral blood mononuclear cells (PBMCs). The experiment in a line: Multiplex assay for 28 cytokines in PBMCs. Format: cell-based, human. The settings on record: up to 50 μM.
Series [12] deals with MHC-II. In kind it is cell-based, mouse.
Series [13] has as its system bacterial tester strains. The experiment in a line: Bacterial mutation test (screening version, pre-incubation). The settings on record: up to 5000 μg/plate. How it is done: Study design: The test was performed on one occasion only. A subset of the standard tester strains (list strains) was used to evaluate the genotoxic potential of the test article.
The test article was formulated in dimethyl sulfoxide (DMSO) and tested at a maximum concentration of 5000 μg/plate (the standard limit dose for this assay) together with approximate half-log dilutions using the pre-incubation version of the bacterial mutation test. The absence of colonies on sterility check plates confirmed the absence of microbial contamination. The mean revertant colony counts for the vehicle controls were close to or within the laboratory historical control data. Appropriate positive control compounds (+/−S9 mix) induced increases in revertant colony numbers at least twice the concurrent vehicle control levels with the appropriate bacterial strain (1.5× for strain TA 100), confirming the sensitivity of the test system and activity of the S9 mix. […] No precipitation was observed.

The subject of series [14] is IL-1β. Nature of the series: Mature IL-1β ELISA in mouse bone marrow derived primary macrophages. Format: cell-based. The following applies: alone or with MDP or BCG, caspase blockade with ZVAD-fmk. As for the experimental part:
C57Bl/6 mouse bone marrow derived primary macrophages were treated with SB 1A or SB 1B alone, MDP alone or in combination as indicated for 4 hrs. BCG was used for infection for 4 hrs and supernatants collected 18 hr later titrated for mature IL1β using ELISA. Macrophages were first treated with ZVAD-fmk (2 hrs) for caspase blockade followed by activation with SB 1A and SB 1B (4 hrs) and BCG infection (4 hrs). Cytokine was measured 18 hrs later.

For series [15], the system named is C57Bl/6 mouse bone marrow derived macrophages. Format: cell-based.

Consider `COC1C(OP(=O)(OCC2OC(n3cnc4c(N)ncnc43)CC2O)SCOC(=O)OC(C)C)C(CO)OC1n1ccc(=O)[nH]c1=O` (mixture of isomers) [SB 44], for which the “IRF3 activation (IRF3-luciferase)” value in [1] was “induced IRF3 activation”. In addition, in series [2], the minor metabolites is under 10%; the “rate differences in conversion of Rp- and Sp-isomers” value is “no significant rate differences”. Moreover, in [2] (MS analysis), the desulfurized product is recorded as under 5%. The “conversion of prodrug to SB 40” value in series [2] (up to eight hours) is “stereospecific conversion to the dinucleotide Rp, Sp-SB 40”. Further, in series [3], the “enhancement of ISG-56 expression over that induced by PolyI-PolyC” value was determined as 2 fold. Besides, the CC50 in series [4] was over 1 mM. For the same compound, the CC50 in series [5] was over 1 mM. Also, in series [6], the “activated IRF3 (phospho-IRF3) detection” value is on record as “detection of activated IRF3”. The “induction of NF-kB activity via RIGI and Nod2 activation” value in [7] is given as “induction of NF-kB activity; also recorded: induction of the transcription factor, NF-KB”. For the same compound, in series [8], the “antigen specific CD8 / memory T cells in lungs of re-challenged mice” value is on record as “boost the magnitude of antigen specific memory T cells; also recorded: induces a robust expansion of antigen specific CD8 T cells”, the “protection against re-challenge of tuberculosis” value is reported as “induce protection against re-challenge of tuberculosis in mice” and the “recall response against re-challenge with tuberculosis” value is listed as “retain the ability to mount a better recall response”. For the same compound, the “no observed effect level (NOEL)” value in series [9] (14-day oral study) is listed as 50 mg/kg/day. In addition, the overt toxicity result in series [9] (50, 200, 500 mg/kg/day oral for 14 days) is “did not cause overt toxicity”. Further, in series [9] (males and females at 200 and 500 mg/kg/day), the thymus microscopic change entry is given as “Minimal to mild increases in thymic phagocytic macrophages”. Besides, in series [10], the “IFN production in the presence of BCG” value is on record as “modest augmentation of IFN production”. In addition, the “cytokine induction in human PBMC cultures” value in [11] was “did not cause cytokine induction”. Moreover, in [12], the “surface expression of MHC-II” value is reported as “increase MHC-II in MΦs; also recorded: enhances surface expression of MHC-II”. Also, the “toxicity to the bacteria (background lawn)” value in series [13] is listed as “non-toxic to the bacteria at the levels tested”. The “genotoxic activity (revertant colony counts)” value in series [13] (absence or presence of S9 mix) is reported as “did not show any evidence of genotoxic activity”. For the same compound, in series [14], the “induction of mature IL-1β” value is “induce IL-1β only in combination with either MDP or intact BCG bacilli”. Further, the “antigen presentation (Antigen-85B) in macrophages” value in series [15] was “enhance antigen presentation in vitro”.
